In brackets after ≈: the same amount, converted by molar mass. Blank lines part the entries; values can stand above or below the molecule they belong to.
Columns and labels:
Assay in all cases: ≥ marks a high value that may be exact or a test limit, other limits are often not marked, values filed in µg/mL are converted to µM
[1] = system: Staphylococcus aureus NCTC 10788
[2] = system: Escherichia coli NCTC 10418
Staphylococcus aureus = system: Staphylococcus aureus
Bacillus cereus = system: Bacillus cereus
Escherichia coli = system: Escherichia coli
[3] = system: Staphylococcus aureus ATCC 25923
[4] = system: Escherichia coli ATCC 25922
[5] = system: Pseudomonas aeruginosa CMCCB 10104
[6] = system: Candida albicans ATCC 2002
[7] = system: Enterococcus faecalis ATCC 29212
[8] = system: Staphylococcus epidermidis ATCC 12228
[9] = system: Salmonella enterica subsp. enterica serovar Pullorum C79-13
[10] = system: Salmonella enterica subsp. enterica serovar Typhimurium C77-31
[11] = system: Pseudomonas aeruginosa ATCC 27853
[12] = system: Salmonella enterica subsp. enterica serovar Typhimurium ATCC 14028
Escherichia coli UB1005 = system: Escherichia coli UB1005
Bacillus subtilis 168 = system: Bacillus subtilis 168
[13] = system: Staphylococcus aureus ATCC 29213

Structure (SMILES): CC[C@H](C)[C@H](NC(=O)CNC(=O)[C@H](CO)NC(=O)[C@H](CC(C)C)NC(=O)[C@H](Cc1cnc[nH]1)NC(=O)[C@@H]1CCCN1C(=O)[C@H](CC(C)C)NC(=O)[C@H](CC(C)C)NC(=O)[C@H](CCC(=O)O)NC(=O)[C@H](CCCCN)NC(=O)[C@@H](NC(=O)[C@@H](N)Cc1ccccc1)[C@@H](C)CC)C(=O)N[C@H](C(=O)N[C@@H](CC(=O)O)C(=O)N[C@@H](CO)C(=O)N[C@H](C(=O)N[C@@H](C)C(=O)N[C@@H](CC(N)=O)C(=O)N[C@@H](C)C(=O)N[C@H](C(=O)N[C@@H](CCCCN)C(N)=O)[C@@H](C)CC)C(C)C)[C@@H](C)CC [FIKELLPHLSGIIDSVANAIK]
- MIC [1]: ≥ 55 µM
- MIC [2]: ≥ 110 µM

Structure (SMILES): CC(C)C[C@H](NC(=O)[C@@H](N)Cc1ccccc1)C(=O)NCC(=O)N[C@H](C(=O)N[C@H](C(=O)N[C@@H](Cc1ccccc1)C(=O)N[C@@H](CCCCN)C(=O)N[C@@H](CCCCN)C(=O)N[C@@H](C)C(=O)N[C@@H](CO)C(=O)N[C@@H](CCCCN)C(=O)N[C@H](C(=O)N[C@@H](Cc1ccccc1)C(=O)N[C@@H](CCCCN)C(=O)N[C@@H](C)C(=O)N[C@H](C(=O)N[C@@H](Cc1ccccc1)C(=O)NCC(=O)N[C@@H](CCCCN)C(=O)N[C@H](C(=O)O)C(C)C)C(C)C)C(C)C)C(C)C)C(C)C [FLGVVFKKASKVFKAVFGKV]
- MIC (Staphylococcus aureus): 116 µM (≈ 256 µg/mL)
- MIC (Bacillus cereus): 14.5 µM (≈ 32 µg/mL)
- MIC (Escherichia coli): 14.5 µM (≈ 32 µg/mL)

Structure (SMILES): CC(C)C[C@H](NC(=O)[C@@H](N)Cc1ccccc1)C(=O)NCC(=O)N[C@H](C(=O)N[C@H](C(=O)N[C@@H](Cc1ccccc1)C(=O)N[C@@H](CCCCN)C(=O)N[C@@H](CCCCN)C(=O)N[C@@H](C)C(=O)N[C@@H](CO)C(=O)N[C@@H](CCCCN)C(=O)N[C@H](C(=O)N[C@@H](Cc1ccccc1)C(=O)N1CCC[C@H]1C(=O)N[C@@H](C)C(=O)N[C@H](C(=O)N[C@@H](Cc1ccccc1)C(=O)N[C@@H](CCCCN)C(=O)N[C@@H](CCCCN)C(=O)N[C@H](C(=O)O)C(C)C)C(C)C)C(C)C)C(C)C)C(C)C [FLGVVFKKASKVFPAVFKKV]
- MIC (Staphylococcus aureus): > 114 µM
- MIC (Bacillus cereus): ≥ 114 µM
- MIC (Escherichia coli): 114 µM (≈ 256 µg/mL)

Structure (SMILES): CC(C)C[C@H](NC(=O)[C@H](CCCCN)NC(=O)[C@H](Cc1ccccc1)NC(=O)[C@@H](NC(=O)[C@@H](NC(=O)CNC(=O)[C@H](CC(C)C)NC(=O)[C@@H](N)Cc1ccccc1)C(C)C)C(C)C)C(=O)N[C@@H](C)C(=O)N[C@@H](CO)C(=O)N[C@@H](CCCCN)C(=O)N[C@H](C(=O)N[C@@H](Cc1ccccc1)C(=O)NCC(=O)N[C@@H](C)C(=O)N[C@H](C(=O)N[C@@H](Cc1ccccc1)C(=O)N[C@@H](CCCCN)C(=O)N[C@@H](CCCCN)C(=O)N[C@H](C(=O)O)C(C)C)C(C)C)C(C)C [FLGVVFKLASKVFGAVFKKV]
- MIC (Staphylococcus aureus): 3.66 µM (≈ 8 µg/mL)
- MIC (Bacillus cereus): 3.66 µM (≈ 8 µg/mL)
- MIC (Escherichia coli): 117 µM (≈ 256 µg/mL)

The next lines start with the values.

- MIC [3]: 1.3 µM (≈ 4.1 µg/mL)
- MIC [4]: 2.61 µM (≈ 8.2 µg/mL)
- MIC [5]: 1.3 µM (≈ 4.1 µg/mL)
- MIC [6]: 1.3 µM (≈ 4.1 µg/mL)
Structure (SMILES): CC[C@H](C)[C@@H]1NC(=O)[C@H](CCCCN)NC(=O)[C@@H](NC(=O)[C@H](CCCCN)NC(=O)[C@H](CC(C)C)NC(=O)[C@H](CC(N)=O)NC(=O)[C@H](CC(=O)O)NC(=O)[C@H](CC(C)C)NC(=O)[C@H](CC(C)C)NC(=O)[C@@H](NC(=O)[C@@H](NC(=O)[C@H](CC(=O)O)NC(=O)[C@H](CCSC)NC(=O)[C@H](CC(N)=O)NC(=O)[C@H](CCCCN)NC(=O)[C@H](C)NC(=O)[C@@H](NC(=O)[C@H](CC(N)=O)NC(=O)[C@H](CCCCN)NC(=O)[C@H](C)NC(=O)[C@@H](NC(=O)[C@H](C)NC(=O)[C@H](CCSC)NC(=O)[C@H](Cc2ccccc2)NC(=O)CN)[C@@H](C)O)C(C)C)C(C)C)[C@@H](C)O)CSSC[C@@H](C(=O)O)NC(=O)[C@H](C)NC(=O)[C@H](CCCCN)NC(=O)[C@H]([C@@H](C)O)NC1=O [GFMATAKNVAKNMDVTLLDNLKCKITKAC]

- MIC [3]: 2.02 µM (≈ 6.3 µg/mL)
- MIC [4]: 4.05 µM (≈ 12.6 µg/mL)
- MIC [5]: 4.05 µM (≈ 12.6 µg/mL)
- MIC [6]: 2.02 µM (≈ 6.3 µg/mL)
Structure (SMILES): CC[C@H](C)[C@@H]1NC(=O)[C@H](CCCCN)NC(=O)[C@@H](NC(=O)[C@H](CCCCN)NC(=O)[C@H](CC(C)C)NC(=O)[C@H](CC(N)=O)NC(=O)[C@H](CC(=O)O)NC(=O)[C@H](CC(C)C)NC(=O)[C@H](CC(C)C)NC(=O)[C@H](CC(N)=O)NC(=O)CNC(=O)[C@H](C)NC(=O)[C@H](CCC(=O)O)NC(=O)[C@H](CC(N)=O)NC(=O)[C@H](CCCCN)NC(=O)[C@H](C)NC(=O)[C@@H](NC(=O)[C@H](CC(N)=O)NC(=O)[C@H](CCCCN)NC(=O)[C@H](C)NC(=O)[C@@H](NC(=O)[C@H](CC(=O)O)NC(=O)[C@H](CCSC)NC(=O)[C@H](Cc2ccccc2)NC(=O)CN)[C@@H](C)O)C(C)C)CSSC[C@@H](C(=O)O)NC(=O)[C@H](C)NC(=O)[C@H](CCCCN)NC(=O)[C@H]([C@@H](C)O)NC1=O [GFMDTAKNVAKNEAGNLLDNLKCKITKAC]

- MIC [3]: 6.12 µM (≈ 20.6 µg/mL)
- MIC [4]: 6.12 µM (≈ 20.6 µg/mL)
- MIC [5]: 12.2 µM (≈ 41.2 µg/mL)
- MIC [6]: 3.06 µM (≈ 10.3 µg/mL)
Structure (SMILES): CC[C@H](C)[C@H](NC(=O)[C@H](CC(C)C)NC(=O)CN)C(=O)N[C@@H](CC(=O)O)C(=O)N[C@H](C(=O)N[C@H](C(=O)N[C@@H](CCCCN)C(=O)N[C@@H](CC(N)=O)C(=O)N[C@@H](CCSC)C(=O)N[C@@H](C)C(=O)N[C@@H](CC(C)C)C(=O)N[C@@H](CC(N)=O)C(=O)N[C@@H](C)C(=O)N[C@@H](C)C(=O)N[C@@H](CCCCN)C(=O)N[C@@H](CO)C(=O)N[C@@H](C)C(=O)NCC(=O)N[C@H](C(=O)N[C@@H](CO)C(=O)N[C@H](C(=O)N[C@@H](CC(C)C)C(=O)N[C@@H](CC(N)=O)C(=O)N[C@H](C(=O)N[C@@H](CC(C)C)C(=O)N[C@@H](CO)C(=O)N[C@H]1CSSC[C@@H](C(=O)O)NC(=O)[C@H]([C@@H](C)O)NC(=O)[C@H](CCCCN)NC(=O)[C@H](CO)NC(=O)[C@H](CC(C)C)NC(=O)[C@H](CCCCN)NC1=O)[C@@H](C)O)C(C)C)C(C)C)[C@@H](C)CC)[C@@H](C)O [GLIDTIKNMALNAAKSAGVSVLNTLSCKLSKTC]

- MIC [7]: 2 µM (≈ 4.26 µg/mL)
- MIC [8]: 2 µM (≈ 4.26 µg/mL)
- MIC [9]: 4 µM (≈ 8.53 µg/mL)
- MIC [10]: 2 µM (≈ 4.26 µg/mL)
- MIC [11]: 4 µM (≈ 8.53 µg/mL)
- MIC [12]: 4 µM (≈ 8.53 µg/mL)
- MIC (Escherichia coli UB1005): 4 µM (≈ 8.53 µg/mL)
Structure (SMILES): CC[C@H](C)[C@H](NC(=O)[C@H](CCCCN)NC(=O)[C@H](CCCCN)NC(=O)[C@H](Cc1ccccc1)NC(=O)[C@H](CC(C)C)NC(=O)[C@H](CCCCN)NC(=O)[C@H](Cc1c[nH]c2ccccc12)NC(=O)[C@@H](N)CCCCN)C(=O)N[C@@H](Cc1c[nH]c2ccccc12)C(=O)N[C@@H](Cc1c[nH]c2ccccc12)C(=O)N1CCC[C@H]1C(=O)N[C@@H](Cc1ccccc1)C(=O)N[C@@H](CC(C)C)C(=O)N[C@@H](CCCN=C(N)N)C(=O)N[C@@H](CCCN=C(N)N)C(N)=O [KWKLFKKIWWPFLRR]

- MIC (Bacillus subtilis 168): 7 µM (≈ 13.1 µg/mL)
Structure (SMILES): CC[C@H](C)[C@H](NC(=O)[C@H](CS)NC(=O)[C@H](CCSC)NC(=O)[C@H](CS)NC(=O)[C@H](CCCN=C(N)N)NC(=O)[C@@H](N)CC(C)C)C(=O)N[C@@H](CCCCN)C(=O)N[C@@H](Cc1c[nH]c2ccccc12)C(=O)N[C@@H](Cc1c[nH]c2ccccc12)C(=O)N[C@@H](CO)C(=O)NCC(=O)N[C@@H](CCCCN)C(=O)N[C@@H](Cc1cnc[nH]1)C(=O)N1CCC[C@H]1C(=O)N[C@@H](CCCCN)C(=O)O [LRCMCIKWWSGKHPK]

- MIC [8]: > 128 µM
- MIC [3]: > 128 µM
- MIC [10]: ≥ 128 µM
- MIC [4]: > 128 µM
- MIC [13]: > 128 µM
- MIC (Escherichia coli UB1005): ≥ 128 µM
Structure (SMILES): CC[C@H](C)[C@H](NC(=O)[C@@H]1CCCN1C(=O)[C@@H]1CCCN1)C(=O)N[C@H](C(=O)NCC(=O)N[C@@H](CO)C(=O)N[C@H](C(=O)N1CCC[C@H]1C(=O)N[C@@H](CC(C)C)C(=O)NCC(=O)N[C@@H](CS)C(=O)NCC(N)=O)[C@@H](C)CC)C(C)C [PPIVGSIPLGCG]

- MIC (Bacillus cereus): ≥ 115 µM
- MIC (Escherichia coli): > 115 µM
Structure (SMILES): CC(C)[C@H](NC(=O)[C@H](Cc1ccccc1)NC(=O)[C@@H](NC(=O)[C@@H](NC(=O)[C@@H](NC(=O)[C@H](CCCCN)NC(=O)[C@H](C)NC(=O)[C@@H](N)[C@@H](C)O)C(C)C)C(C)C)C(C)C)C(=O)N[C@@H](CO)C(=O)N[C@@H](Cc1ccccc1)C(=O)N[C@@H](CO)C(=O)N[C@@H](Cc1ccc(O)cc1)C(=O)N[C@H](C(=O)N[C@H](C(=O)N1CCC[C@H]1C(=O)N[C@@H](CCCCN)C(=O)N[C@@H](CCCCN)C(=O)N[C@@H](CCCN=C(N)N)C(=O)N[C@@H](C)C(=O)N[C@@H](CS)C(=O)O)C(C)C)C(C)C [TAKVVVFVSFSYVVPKKRAC]

From DBAASP
